Results taken from US20230114728A1 (Venatorx Pharmaceuticals, Inc., priority 2019, published 2023).
Converted amounts (≈) assume the structure as drawn.

Tests used:
N. gonorrhoeae WHO L = assay: Liquid broth MIC in Fastidious broth; format: cell-based; settings: Neisseria gonorrhoeae; N. gonorrhoeae strain WHO L; Fastidious broth; read-out: Minimum Inhibitory Concentration, N. gonorrhoeae WHO L
In short: (§1)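 Colonies were swabbed from chocolate agar after 24 h growth and standardised by optical density at 600 nm. Compounds were serially diluted twofold in Fastidious broth, and bacteria added to give 5×10^5 CFU/mL. After about 24 h at 36 °C in 5% CO2, the lowest concentration allowing under 10% growth was taken as MIC.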

N. gonorrhoeae WHO Q = assay: Liquid broth MIC in Fastidious broth; format: cell-based; settings: Neisseria gonorrhoeae, read-out: Minimum Inhibitory Concentration, N. gonorrhoeae WHO Q
In short: (§2)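 Broth microdilution against gonococcal strains expressing mosaic PBP2, starting inoculum 5×10^5 CFU/mL in Fastidious broth. Incubation runs ~24 h at 36 °C under 5% CO2, with MIC scored visually at <10% of full growth.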

N. gonorrhoeae WHO Z = assay: Liquid broth MIC in Fastidious broth; format: cell-based; settings: Neisseria gonorrhoeae, read-out: Minimum Inhibitory Concentration, N. gonorrhoeae WHO Z
In short: as §2

N. gonorrhoeae WHO G = assay: Liquid broth MIC in Fastidious broth; format: cell-based; settings: Neisseria gonorrhoeae; N. gonorrhoeae strain WHO G; Fastidious broth; read-out: Minimum Inhibitory Concentration, N. gonorrhoeae WHO G
In short: as §1

[1] = test system: N. gonorrhoeae ATCC 49226; assay: Liquid broth MIC in Fastidious broth; format: cell-based; settings: Neisseria gonorrhoeae, ATCC49226; N. gonorrhoeae strain ATCC 49226; Fastidious broth; read-out: Minimum Inhibitory Concentration, N. gonorrhoeae ATCC 49226
In short: as §1

N. gonorrhoeae FA1090 = assay: Liquid broth MIC in Fastidious broth; format: cell-based; settings: Neisseria gonorrhoeae; N. gonorrhoeae strain FA1090; Fastidious broth; read-out: Minimum Inhibitory Concentration, N. gonorrhoeae FA1090
In short: as §1

N. gonorrhoeae WHO K = assay: Liquid broth MIC in Fastidious broth; format: cell-based; settings: Neisseria gonorrhoeae, read-out: Minimum Inhibitory Concentration, N. gonorrhoeae WHO K
In short: as §2

N. gonorrhoeae H041 = assay: Liquid broth MIC in Fastidious broth; format: cell-based; settings: Neisseria gonorrhoeae, H041, read-out: Minimum Inhibitory Concentration, N. gonorrhoeae H041
In short: as §2

E. coli K12 PBP3 = molecular target: T1, E. coli K12 PBP3 (Escherichia coli, UniProt P0AD68); assay: biochemical; format: binding
T1 construct: made in house
T1 sequence (P0AD68 1-577): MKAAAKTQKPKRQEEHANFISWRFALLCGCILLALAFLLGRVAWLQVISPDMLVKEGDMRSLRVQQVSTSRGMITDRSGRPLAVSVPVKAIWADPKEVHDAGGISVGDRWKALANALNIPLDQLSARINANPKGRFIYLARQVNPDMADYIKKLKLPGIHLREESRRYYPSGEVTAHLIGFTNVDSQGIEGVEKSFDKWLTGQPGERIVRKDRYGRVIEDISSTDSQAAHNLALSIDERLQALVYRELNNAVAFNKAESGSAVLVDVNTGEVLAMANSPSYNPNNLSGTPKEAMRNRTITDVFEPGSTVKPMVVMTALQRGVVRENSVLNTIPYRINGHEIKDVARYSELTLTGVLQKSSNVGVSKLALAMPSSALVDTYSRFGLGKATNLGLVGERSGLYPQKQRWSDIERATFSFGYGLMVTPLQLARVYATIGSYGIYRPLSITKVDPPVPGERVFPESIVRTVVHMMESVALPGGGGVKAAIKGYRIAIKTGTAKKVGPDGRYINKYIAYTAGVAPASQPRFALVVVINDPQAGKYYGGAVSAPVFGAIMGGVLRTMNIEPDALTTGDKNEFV
In short: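 A. baumannii PBP2 (2.5 μM) and PBP3 (0.2 μM) were run in 25 mM Tris pH 8.0 buffer with Tween 20; E. coli PBP3 (1.5 μM) and N. gonorrhoeae PBP2 ([…]) in 50 mM Hepes pH 8.0 buffer.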

P. aeruginosa PBP3 = molecular target: T2, P. aeruginosa PBP3 (Pseudomonas aeruginosa, UniProt G3XD46); assay: Bocillin-FL fluorescence polarization competition binding assay, P. aeruginosa PBP3; settings: fluorescence polarization competition binding assay using Bocillin-FL
T2 construct: made in house
T2 sequence (G3XD46 whole entry): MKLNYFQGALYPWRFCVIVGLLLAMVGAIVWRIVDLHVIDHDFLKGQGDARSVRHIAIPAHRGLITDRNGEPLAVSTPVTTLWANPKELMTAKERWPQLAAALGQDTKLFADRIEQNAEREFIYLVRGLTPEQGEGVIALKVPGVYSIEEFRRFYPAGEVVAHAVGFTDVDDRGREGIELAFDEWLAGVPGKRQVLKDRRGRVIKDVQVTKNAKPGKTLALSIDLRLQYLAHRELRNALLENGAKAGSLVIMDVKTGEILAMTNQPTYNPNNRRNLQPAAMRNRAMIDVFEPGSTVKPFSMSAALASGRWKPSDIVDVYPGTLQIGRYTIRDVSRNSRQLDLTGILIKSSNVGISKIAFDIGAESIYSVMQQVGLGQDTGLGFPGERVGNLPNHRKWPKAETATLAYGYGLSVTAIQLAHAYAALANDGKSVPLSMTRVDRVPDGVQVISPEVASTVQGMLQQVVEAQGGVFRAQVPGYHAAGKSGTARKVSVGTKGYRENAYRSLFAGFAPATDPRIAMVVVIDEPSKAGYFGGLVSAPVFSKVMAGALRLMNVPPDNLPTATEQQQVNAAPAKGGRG
In short: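 Inhibitor competition with Bocillin-FL for P. aeruginosa PBP3 was followed by fluorescence polarization on a Cytation3 (BioTek) reader, using g-factor 0.96, 490 nm excitation and 520 nm emission. The enzyme was at 0.75 μM and the probe at 0.1 μM in Hepes/NaCl/glycerol buffer, 80 μl per well. FP was recorded immediately after probe addition for up to 60 minutes. Potency was expressed as EC50, the concentration that reduces bound probe by 50%.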

| Structure (SMILES) | MIC (N. gonorrhoeae WHO L) [µg/mL] | MIC (N. gonorrhoeae WHO Q) [µg/mL] | MIC (N. gonorrhoeae WHO Z) [µg/mL] | MIC (N. gonorrhoeae WHO G) [µg/mL] | MIC [1] [µg/mL] | MIC (N. gonorrhoeae FA1090) [µg/mL] | MIC (N. gonorrhoeae WHO K) [µg/mL] | MIC (N. gonorrhoeae H041) [µg/mL] | EC50 (E. coli K12 PBP3) [µM] | P. aeruginosa PBP3 Potency (P. aeruginosa PBP3) |
| --- | --- | --- | --- | --- | --- | --- | --- | --- | --- | --- |
| CCN1CCN(C(=O)N[C@H](C(=O)N[C@H]2Cc3cccc(C(=O)O)c3OB2O)c2ccc(C(=O)O)c(Cl)c2)C(=O)C1=O (single isomer, unassigned) [Example 155] | 16 to 32 (≈ 27.3 to 54.5 µM) | 1 to 2 (≈ 1.7 to 3.41 µM) | 1 to 2 (≈ 1.7 to 3.41 µM) | 0.25 to 0.5 (≈ 0.426 to 0.852 µM) | 1 to 2 (≈ 1.7 to 3.41 µM) | < 0.125 | 1 to 2 (≈ 1.7 to 3.41 µM) | 4 to 8 (≈ 6.82 to 13.6 µM) | < 30 | D (D represents a potency <10 μM) |
| NCCN1CCN(C(=O)N[C@H](C(=O)N[C@H]2Cc3cccc(C(=O)O)c3OB2O)c2cc(F)c(O)c(F)c2)C(=O)C1=O (single isomer, unassigned) [Example 158] | > 64 | > 64 | > 64 | 16 to 32 (≈ 27.8 to 55.6 µM) | > 64 | 4 to 8 (≈ 6.95 to 13.9 µM) | > 64 | > 64 | 30 to 500 | C (C represents a potency between 10 and 30 μM) |
| NCCN1CCN(C(=O)N[C@@H](C(=O)N[C@H]2Cc3cccc(C(=O)O)c3OB2O)c2cc(F)c(O)c(F)c2)C(=O)C1=O (single isomer, unassigned) [Example 159] | > 64 | > 64 | > 64 | 4 to 8 (≈ 6.95 to 13.9 µM) | 16 to 32 (≈ 27.8 to 55.6 µM) | 1 to 2 (≈ 1.74 to 3.48 µM) | > 64 | > 64 | < 30 | D (D represents a potency <10 μM) |
| NCCN1CCN(C(=O)N[C@H](C(=O)N[C@H]2Cc3cccc(C(=O)O)c3OB2O)c2cc(Cl)c(O)c(Cl)c2)C(=O)C1=O (single isomer, unassigned) [Example 165] | > 64 | > 64 | > 64 | > 64 | > 64 | 4 to 8 (≈ 6.58 to 13.2 µM) | > 64 | > 64 | 30 to 500 | D (D represents a potency <10 μM) |
| NCCN1CCN(C(=O)N[C@H](C(=O)N[C@H]2Cc3cccc(C(=O)O)c3OB2O)c2cc(F)c(O)c(F)c2F)C(=O)C1=O (single isomer, unassigned) [Example 167] | > 64 | > 64 | > 64 | 16 to 32 (≈ 27 to 53.9 µM) | 16 to 32 (≈ 27 to 53.9 µM) | 1 to 2 (≈ 1.69 to 3.37 µM) | > 64 | > 64 | 30 to 500 | D (D represents a potency <10 μM) |
| NCCN1CCN(C(=O)N[C@@H](C(=O)N[C@H]2Cc3cccc(C(=O)O)c3OB2O)c2cc(F)c(O)c(F)c2F)C(=O)C1=O (single isomer, unassigned) [Example 168] | 16 to 32 (≈ 27 to 53.9 µM) | 16 to 32 (≈ 27 to 53.9 µM) | 16 to 32 (≈ 27 to 53.9 µM) | 1 to 2 (≈ 1.69 to 3.37 µM) | 4 to 8 (≈ 6.74 to 13.5 µM) | 0.25 to 0.5 (≈ 0.421 to 0.843 µM) | 16 to 32 (≈ 27 to 53.9 µM) | > 64 | < 30 | D (D represents a potency <10 μM) |
| NCCN1CCN(C(=O)N[C@H](C(=O)N[C@H]2Cc3cccc(C(=O)O)c3OB2O)c2ccc(O)c(F)c2F)C(=O)C1=O (single isomer, unassigned) [Example 169] | > 64 | > 64 | > 64 | > 64 | > 64 | 4 to 8 (≈ 6.95 to 13.9 µM) | > 64 | > 64 | 30 to 500 | C (C represents a potency between 10 and 30 μM) |
| NCCN1CCN(C(=O)N[C@@H](C(=O)N[C@H]2Cc3cccc(C(=O)O)c3OB2O)c2ccc(O)c(F)c2F)C(=O)C1=O (single isomer, unassigned) [Example 170] | > 64 | > 64 | > 64 | 4 to 8 (≈ 6.95 to 13.9 µM) | 4 to 8 (≈ 6.95 to 13.9 µM) | 0.25 to 0.5 (≈ 0.435 to 0.869 µM) | > 64 | > 64 | < 30 | D (D represents a potency <10 μM) |
